As usually defined, the solubility is the dissolved amount per volume that the medium holds. Low readings indicate little dissolved substance, high ones much dissolved substance. In general, logP refers to the decadic logarithm of the partition coefficient of the neutral form, usually between octanol and water. The low end stands for a more hydrophilic compound, the high end for a more lipophilic compound.

Series [1] relates to Blumeria graminis f. sp. tritici. Put plainly: Antifungal activity against Erysiphe graminis f. sp. tritici at […] relative to control. The format is functional.
Series [2] is described as follows: Aqueous solubility at pH 7.0. The format is physicochemical.
Series [3] is described as follows: Partition coefficient, log P by chromatographic hydrophobicity method. In kind it is physicochemical. Particulars: octanol/water.
Series [4] in a line: Partition coefficient, log P of the compound. The format is physicochemical. Particulars: octanol/water.

Values after ≈ are worked out from the molar mass of the structure shown.

Consider `c1ccc(CSc2nnnc3c2sc2nc(N4CCOCC4)c4c(c23)CCCC4)cc1`, for which the Activity in series [1] was determined as 0%. Still for that read-out and setting: the value for `CC(C)Oc1nnnc2c1sc1nc(N3CCOCC3)c3c(c12)CCCC3` was 0%.

The compound `COCCN(CCOC)c1nc2sc3c(OC)nnnc3c2c2c1CCCC2` gave a solubility in series [2] of 0.79 µg/mL (≈ 1.96 µM). The log partition coefficient (logP) in series [3] came to 4.09. The compound also returned an Activity in series [1] of 67%.

`C1CCc2c(c(N3CCOCC3)nc3sc4c(N5CCOCC5)nnnc4c23)C1`: the Activity in series [1] was 0%. Same read-out and setting: the value for `CSc1nnnc2c1sc1nc(N3CCOCC3)c3c(c12)CCCC3` was 100%; that for `COCCNc1nnnc2c1sc1nc(N3CCOCC3)c3c(c12)CCCC3` was 0%; that for `CCCOc1nnnc2c1sc1nc(N3CCOCC3)c3c(c12)CCCC3` was 94%. The compound `COc1nnnc2c1sc1nc(N(C)Cc3ccccc3)c3c(c12)CCCC3` yielded an Activity in series [1] of 100%. Still for that read-out and setting: the value for `CCOc1nnnc2c1sc1nc(N3CCOCC3)c3c(c12)CCCC3` was 100%; that for `CC(C)CCOc1nnnc2c1sc1nc(N3CCOCC3)c3c(c12)CCCC3` was 0%. Regarding `COc1nnnc2c1sc1nc(O)c3c(c12)CCCC3`, the Activity in series [1] is recorded as 0%. The same measure, in the same setting: the value for `CCCCN(C)c1nc2sc3c(OC)nnnc3c2c2c1CCCC2` was 83%. In series [2], `COCCN(C)c1nc2sc3c(OC)nnnc3c2c2c1CCCC2` displayed a solubility of 0.32 µg/mL (≈ 0.89 µM). In addition, the logP in series [3] came out at 4.31. Also, the Activity in series [1] is listed as 100%. Compound `Clc1nnnc2c1sc1nc(N3CCOCC3)c3c(c12)CCCC3` returned an Activity in series [1] of 0%. Consider `COc1nnnc2c1sc1nc(N3CCOCC3)c3c(c12)CCCC3`, for which the logP in series [4] came to 4.25; in series [3] it was 4.06. Besides, the solubility in series [2] is 0.08 µg/mL (≈ 0.224 µM). Moreover, the Activity in series [1] came to 100%. The compound `CCN(CC)c1nnnc2c1sc1nc(N3CCOCC3)c3c(c12)CCCC3` had an Activity in series [1] of 0%. In series [1], `NNc1nnnc2c1sc1nc(N3CCOCC3)c3c(c12)CCCC3` returned an Activity of 0%. `COCCOc1nnnc2c1sc1nc(N3CCOCC3)c3c(c12)CCCC3`: the solubility in series [2] worked out at 0.21 µg/mL (≈ 0.523 µM). Also, the lipophilicity (logP) in series [3] turned out to be 3.82. The same compound yielded an Activity in series [1] of 100%.

`CCN(CC)c1nc2sc3c(OC)nnnc3c2c2c1CCCC2` gave a solubility in series [2] of 0.08 µg/mL (≈ 0.233 µM). The same compound had a logP in series [3] of 5.32. This compound also gave an Activity in series [1] of 100%.

As to `COCCNc1nc2sc3c(OC)nnnc3c2c2c1CCCC2`, the solubility in series [2] is 0.14 µg/mL (≈ 0.405 µM). This compound had a logP in series [3] of 3.9. The Activity in series [1] came to 33%. In series [1], `COc1nnnc2c1sc1nc(N3CCCC3)c3c(c12)CCCC3` had an Activity of 92%.

Turning to `c1coc(COc2nnnc3c2sc2nc(N4CCOCC4)c4c(c23)CCCC4)c1`, the Activity in series [1] came out at 0%. The same measure, in the same setting: the value for `CCSc1nnnc2c1sc1nc(N3CCOCC3)c3c(c12)CCCC3` was 100%; that for `CCCCNc1nnnc2c1sc1nc(N3CCOCC3)c3c(c12)CCCC3` was 0%. As to `Sc1nnnc2c1sc1nc(N3CCOCC3)c3c(c12)CCCC3`, the Activity in series [1] is given as 0%. With `COCCOc1nnnc2c1sc1nc(N(C)CCOC)c3c(c12)CCCC3`, the solubility in series [2] was determined as 0.48 µg/mL (≈ 1.19 µM). For the same compound, the lipophilicity (logP) in series [3] was 4.12. The Activity in series [1] is recorded as 100%. Turning to `C1CCc2c(c(N3CCOCC3)nc3sc4c(OC5CCCC5)nnnc4c23)C1`, the Activity in series [1] stood at 0%.

On to `CCCOc1nc2sc3c(OC)nnnc3c2c2c1CCCC2`, for which, in series [1], the Activity turned out to be 100%. On the same count and under the same terms, as for `c1ccc(NNc2nnnc3c2sc2nc(N4CCOCC4)c4c(c23)CCCC4)cc1`, the figure is 0%. The same measure, in the same setting: the value for `CC(Cc1ccc(C(C)(C)C)cc1)CN1C[C@@H](C)O[C@@H](C)C1` (stereo partly specified) [FENPROPIMORPH] was 97%; that for `COc1nnnc2c1sc1nc(OS(=O)(=O)C(F)(F)F)c3c(c12)CCCC3` was 40%.

The values are drawn from ChEMBL document CHEMBL1139772, “Synthesis and SAR studies of novel antifungal 1,2,3-triazines” (Bioorg Med Chem Lett, 2007).
